Measured values taken from patent US20260102388A1 (priority 2022, published 2026).

System: SD rats
Test: Effect of compound implant of naltrexone on spontaneous activity
Conditions: implants 3 tablets/animal (diazepam 2 mg/kg), 60 min recording, X ± SEM
Description: Test animals: SPF-grade Sprague-Dawley (SD) rats, weighing 200±20 g, and they were fed adaptively.
Animal grouping and administration: Animals were divided into 8 groups with 12 animals in each group, half male and half female. In the experiment, animals were divided into positive control group (diazepam group, with a dose of 2 mg/kg), negative control group (normal saline), Example 1 group, Example 2 group, Comparative Example 2 group, Comparative Example 4 group, Comparative Example 5 group (dose: 3 tablets/animal), and fasten for 12 h before administration. The dosage volume for rats was 10 mL/kg.
The experiment was divided into three periods: adaptation period, pre-testing period and post-administration testing period. […]
Open field adaptation: After environmental adaptation, single rat/mouse was put into a spontaneous activity box for 60 min to adapt to the experiment box, and the spontaneous activity within 60 min was recorded, the general adaptation was 2-3 days to reduce the impact of environmental stimulation.
Baseline test: Single rat/mouse was put into a spontaneous activity box for 40 min to adapt to the experimental box, and spontaneous activity within 40 min was recorded, then divided equally to groups according to basic spontaneous activity. […]
Data were expressed as Mean±SEM. […]

How did the “total distance of activity” value turn out when `CN1C(=O)CN=C(c2ccccc2)c2cc(Cl)ccc21` [Positive control group, diazepam] was run?
The value was 9698.94 ± 902.16 mm.
